Test results: patent publication US8987267B2, “2-substituted-8-alkyl-7-OXO-7,8-dihydropyrido[2,3-D]pyrimidine-6-carbonitriles and uses thereof in treating proliferative disorders” (Temple University—of the Commonwealth System of Higher …, priority 2010, dated 2015)
pIC50: −log10 of the molar value.

How the values were obtained:
Assay type in all cases: biochemical
[1] = molecular target: T1, His-tagged full length ARK5 (Homo sapiens, UniProt O60285); assay: ARK5 Kinase Assay (ARK5 Inhibition Assay); details: CHKtide substrate, 1 μM ATP
T1 construct: 20 ng His-tagged full length ARK5 (Invitrogen PV4127); His; purchased Invitrogen PV4127
T1 sequence (O60285 1-661): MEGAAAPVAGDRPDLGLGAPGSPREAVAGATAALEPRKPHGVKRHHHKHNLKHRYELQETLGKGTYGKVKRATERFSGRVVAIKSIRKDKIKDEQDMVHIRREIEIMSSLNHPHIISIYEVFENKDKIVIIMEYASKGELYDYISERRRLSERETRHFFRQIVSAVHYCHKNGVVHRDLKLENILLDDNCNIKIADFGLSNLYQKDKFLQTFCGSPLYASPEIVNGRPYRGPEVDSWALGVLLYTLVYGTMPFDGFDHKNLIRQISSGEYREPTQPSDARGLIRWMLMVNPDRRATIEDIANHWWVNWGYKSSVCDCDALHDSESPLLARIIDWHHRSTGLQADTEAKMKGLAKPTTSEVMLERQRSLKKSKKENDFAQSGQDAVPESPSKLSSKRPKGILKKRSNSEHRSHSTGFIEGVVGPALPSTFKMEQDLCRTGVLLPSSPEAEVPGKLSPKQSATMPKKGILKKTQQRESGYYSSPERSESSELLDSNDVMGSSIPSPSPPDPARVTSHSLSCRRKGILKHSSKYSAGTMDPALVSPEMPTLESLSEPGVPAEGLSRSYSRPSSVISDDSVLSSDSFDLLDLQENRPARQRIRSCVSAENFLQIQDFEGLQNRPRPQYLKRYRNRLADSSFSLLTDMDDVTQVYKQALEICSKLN
Experimental: 20 ng His-tagged full length ARK5 (Invitrogen PV4127), a protein kinase, was diluted into kinase buffer (25 mM HEPES pH 7.5, 10 mM MgCl2, 0.5 mM EGTA, 0.5 mM Na3V04, 5 mM β Glycerophosphate, 2.5 mM DTT, 0.01% Triton X-100) and incubated with the indicated concentration of a compound of Table 3 at room temperature for 30 minutes. The kinase reactions were then initiated by the addition of 1 μg (3.28 μM) CHKtide substrate peptide (Upstate 12-414), 1 μM ATP and 10 μCi γ^32 P-ATP. The reactions were incubated at 30° C. for 10 minutes.
Subsequently, the reactions were stopped by adding 3% phosphoric acid. A 10 μl aliquot was then transferred to an appropriate area of a p30 filtermat. The filtermat was allowed to dry for 20 minutes at room temperature and then washed three times with 75 mM phosphoric acid and twice with methanol. The filtermat was then dried for 20 minutes at room temperature. The filtermat was then exposed to X ray film or read in a scintillation counter. The scintillation counting values were plotted as function of log drug concentration using Prism 4 Graph pad software and IC50 values determined by plotting sigmoidal non-linear regression curves with variable slope.

PKCmu = PKCmu (Homo sapiens, UniProt Q15139); assay: Kinase inhibition panel; details: 10 μM ATP
ARK5 = ARK5 (Homo sapiens, UniProt O60285); assay: Kinase inhibition panel; details: 10 μM ATP
c-Kit = c-Kit (Homo sapiens, UniProt P10721); assay: Kinase inhibition panel; details: 10 μM ATP
FGR = FGR (Homo sapiens, UniProt P09769); assay: Kinase inhibition panel; details: 10 μM ATP
TTK = TTK (Homo sapiens, UniProt P33981); assay: Kinase inhibition panel; details: 10 μM ATP
FLT4NEGFR3 = FLT4NEGFR3 (Homo sapiens, UniProt P35916); assay: Kinase inhibition panel; details: 10 μM ATP
Chain of FLT4NEGFR3 (P35916 25-1363): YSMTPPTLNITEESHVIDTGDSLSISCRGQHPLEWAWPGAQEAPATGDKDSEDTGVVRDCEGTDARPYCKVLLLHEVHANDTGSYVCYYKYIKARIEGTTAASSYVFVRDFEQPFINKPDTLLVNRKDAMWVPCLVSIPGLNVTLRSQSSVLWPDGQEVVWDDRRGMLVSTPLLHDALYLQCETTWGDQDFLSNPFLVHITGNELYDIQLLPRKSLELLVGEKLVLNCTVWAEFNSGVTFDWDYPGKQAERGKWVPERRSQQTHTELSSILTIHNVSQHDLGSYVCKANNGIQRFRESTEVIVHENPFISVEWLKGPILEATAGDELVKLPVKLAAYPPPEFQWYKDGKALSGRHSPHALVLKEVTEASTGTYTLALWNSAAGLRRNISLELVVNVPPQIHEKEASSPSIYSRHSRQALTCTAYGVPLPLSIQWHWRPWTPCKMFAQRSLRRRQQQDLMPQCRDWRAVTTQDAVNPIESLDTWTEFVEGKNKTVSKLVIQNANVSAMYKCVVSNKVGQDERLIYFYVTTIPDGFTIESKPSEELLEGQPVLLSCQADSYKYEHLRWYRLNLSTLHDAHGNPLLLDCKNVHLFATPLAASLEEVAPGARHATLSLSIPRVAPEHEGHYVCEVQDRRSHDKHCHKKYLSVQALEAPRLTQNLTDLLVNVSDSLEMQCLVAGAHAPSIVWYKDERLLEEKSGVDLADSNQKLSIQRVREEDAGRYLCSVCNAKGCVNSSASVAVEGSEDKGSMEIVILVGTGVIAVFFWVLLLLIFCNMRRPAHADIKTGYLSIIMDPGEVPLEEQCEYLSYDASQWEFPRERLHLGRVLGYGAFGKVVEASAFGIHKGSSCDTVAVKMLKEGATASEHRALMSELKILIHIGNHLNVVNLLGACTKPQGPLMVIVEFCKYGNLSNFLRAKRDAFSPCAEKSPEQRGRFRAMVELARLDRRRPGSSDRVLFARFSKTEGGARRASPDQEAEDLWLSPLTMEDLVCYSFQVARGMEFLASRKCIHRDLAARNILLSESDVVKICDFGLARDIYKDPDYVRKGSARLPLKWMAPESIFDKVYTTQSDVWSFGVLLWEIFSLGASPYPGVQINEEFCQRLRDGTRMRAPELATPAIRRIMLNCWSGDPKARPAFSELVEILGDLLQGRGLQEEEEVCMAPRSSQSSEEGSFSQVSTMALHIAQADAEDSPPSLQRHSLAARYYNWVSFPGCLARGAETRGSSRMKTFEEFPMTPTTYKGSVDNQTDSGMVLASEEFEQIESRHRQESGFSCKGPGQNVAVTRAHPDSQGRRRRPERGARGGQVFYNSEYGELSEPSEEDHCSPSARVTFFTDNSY

Chain of TTK (P33981 whole entry, species assumed): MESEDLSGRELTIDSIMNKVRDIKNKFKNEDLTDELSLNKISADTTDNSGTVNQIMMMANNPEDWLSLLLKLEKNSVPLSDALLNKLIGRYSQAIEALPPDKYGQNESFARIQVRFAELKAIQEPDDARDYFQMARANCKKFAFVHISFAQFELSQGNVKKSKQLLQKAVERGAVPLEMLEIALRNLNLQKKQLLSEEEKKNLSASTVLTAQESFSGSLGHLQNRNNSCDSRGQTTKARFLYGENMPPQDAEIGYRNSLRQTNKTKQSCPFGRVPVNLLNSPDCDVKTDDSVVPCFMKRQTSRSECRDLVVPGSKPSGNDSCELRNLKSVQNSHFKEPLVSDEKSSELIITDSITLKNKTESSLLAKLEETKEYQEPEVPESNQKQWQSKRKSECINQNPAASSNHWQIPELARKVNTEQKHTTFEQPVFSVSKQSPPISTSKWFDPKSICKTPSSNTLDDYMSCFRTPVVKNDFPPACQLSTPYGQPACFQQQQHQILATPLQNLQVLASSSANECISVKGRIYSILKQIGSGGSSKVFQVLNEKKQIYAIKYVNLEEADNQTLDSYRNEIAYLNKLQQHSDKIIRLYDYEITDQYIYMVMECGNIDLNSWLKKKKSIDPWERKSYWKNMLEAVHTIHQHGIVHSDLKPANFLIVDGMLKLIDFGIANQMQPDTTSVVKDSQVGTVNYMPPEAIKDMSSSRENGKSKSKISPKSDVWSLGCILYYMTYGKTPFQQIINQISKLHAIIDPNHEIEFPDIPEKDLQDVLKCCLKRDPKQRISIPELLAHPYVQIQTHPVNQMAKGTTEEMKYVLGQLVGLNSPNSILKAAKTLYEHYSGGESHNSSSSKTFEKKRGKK
Chain of c-Kit (P10721 26-976): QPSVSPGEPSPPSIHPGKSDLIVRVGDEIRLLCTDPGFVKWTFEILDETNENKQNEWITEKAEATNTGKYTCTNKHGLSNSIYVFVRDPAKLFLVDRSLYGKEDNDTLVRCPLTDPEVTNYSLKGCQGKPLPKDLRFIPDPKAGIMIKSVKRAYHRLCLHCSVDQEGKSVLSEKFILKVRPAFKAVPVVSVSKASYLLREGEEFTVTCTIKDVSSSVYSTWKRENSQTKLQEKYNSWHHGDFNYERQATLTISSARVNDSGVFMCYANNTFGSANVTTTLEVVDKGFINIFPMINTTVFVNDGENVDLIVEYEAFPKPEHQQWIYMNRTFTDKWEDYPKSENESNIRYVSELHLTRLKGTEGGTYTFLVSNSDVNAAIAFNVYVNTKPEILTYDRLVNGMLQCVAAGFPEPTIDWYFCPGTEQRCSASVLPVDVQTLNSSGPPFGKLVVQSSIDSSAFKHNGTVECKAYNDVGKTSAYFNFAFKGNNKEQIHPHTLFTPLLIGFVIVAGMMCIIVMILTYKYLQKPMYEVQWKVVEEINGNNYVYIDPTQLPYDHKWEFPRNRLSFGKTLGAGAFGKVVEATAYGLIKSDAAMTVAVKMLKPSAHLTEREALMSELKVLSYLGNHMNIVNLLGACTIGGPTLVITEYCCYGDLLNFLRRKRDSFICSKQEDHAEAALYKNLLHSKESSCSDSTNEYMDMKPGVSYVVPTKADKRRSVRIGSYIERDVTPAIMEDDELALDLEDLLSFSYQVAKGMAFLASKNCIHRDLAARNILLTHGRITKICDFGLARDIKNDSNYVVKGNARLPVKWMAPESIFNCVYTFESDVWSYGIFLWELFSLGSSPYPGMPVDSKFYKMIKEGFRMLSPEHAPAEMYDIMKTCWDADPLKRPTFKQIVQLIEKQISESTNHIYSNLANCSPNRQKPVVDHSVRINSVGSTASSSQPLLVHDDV
Chain of FGR (P09769 whole entry, species assumed): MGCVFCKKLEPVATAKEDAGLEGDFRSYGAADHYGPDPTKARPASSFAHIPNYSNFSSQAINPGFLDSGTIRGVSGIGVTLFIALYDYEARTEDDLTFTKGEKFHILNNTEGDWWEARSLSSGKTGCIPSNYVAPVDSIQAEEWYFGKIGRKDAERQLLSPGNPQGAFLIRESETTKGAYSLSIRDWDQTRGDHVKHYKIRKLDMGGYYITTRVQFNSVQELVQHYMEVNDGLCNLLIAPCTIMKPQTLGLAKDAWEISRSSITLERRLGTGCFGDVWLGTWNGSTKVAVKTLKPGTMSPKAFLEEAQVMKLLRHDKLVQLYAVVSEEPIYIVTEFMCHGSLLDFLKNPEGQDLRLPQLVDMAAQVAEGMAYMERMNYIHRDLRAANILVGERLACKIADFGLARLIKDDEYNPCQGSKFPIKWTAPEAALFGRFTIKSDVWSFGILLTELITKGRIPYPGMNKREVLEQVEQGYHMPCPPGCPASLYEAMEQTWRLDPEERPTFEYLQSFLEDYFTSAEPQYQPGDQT
Chain of PKCmu (Q15139 whole entry): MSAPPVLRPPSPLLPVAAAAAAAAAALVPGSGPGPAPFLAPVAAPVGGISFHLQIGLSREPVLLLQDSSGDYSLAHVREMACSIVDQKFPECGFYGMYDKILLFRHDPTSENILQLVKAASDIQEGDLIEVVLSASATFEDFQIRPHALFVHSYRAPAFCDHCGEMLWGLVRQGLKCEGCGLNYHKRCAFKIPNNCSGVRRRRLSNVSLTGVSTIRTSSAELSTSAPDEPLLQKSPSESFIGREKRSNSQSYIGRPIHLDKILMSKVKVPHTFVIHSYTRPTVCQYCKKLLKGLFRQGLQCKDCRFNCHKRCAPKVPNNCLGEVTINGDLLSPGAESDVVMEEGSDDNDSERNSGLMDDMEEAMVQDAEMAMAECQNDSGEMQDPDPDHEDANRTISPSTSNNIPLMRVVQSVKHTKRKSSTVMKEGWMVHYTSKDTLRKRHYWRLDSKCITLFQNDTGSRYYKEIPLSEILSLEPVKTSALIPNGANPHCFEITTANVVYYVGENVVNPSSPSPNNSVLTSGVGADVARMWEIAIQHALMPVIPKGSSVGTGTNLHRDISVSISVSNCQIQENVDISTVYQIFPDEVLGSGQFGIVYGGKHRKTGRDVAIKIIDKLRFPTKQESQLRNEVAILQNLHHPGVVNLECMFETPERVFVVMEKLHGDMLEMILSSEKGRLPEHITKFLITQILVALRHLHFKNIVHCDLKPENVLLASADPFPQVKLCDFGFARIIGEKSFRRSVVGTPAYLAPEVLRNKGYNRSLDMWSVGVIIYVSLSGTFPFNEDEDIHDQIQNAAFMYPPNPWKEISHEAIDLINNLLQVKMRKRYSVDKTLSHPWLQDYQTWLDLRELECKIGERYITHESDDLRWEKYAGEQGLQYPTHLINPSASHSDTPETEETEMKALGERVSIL

| pIC50 [1] | SMILES | also measured |
| --- | --- | --- |
| < 5.00 | CN1CCN(c2ccc(Nc3ncc4cc(S(C)(=O)=O)c(=O)n(C5CCCC5)c4n3)cc2)CC1 [Comp. Ex. 1, 8-cyclopentyl-2-((4-(4-methylpiperazin-1-yl)phenyl)amino)-6-(methylsulfonyl)pyrido[2,3-d]pyrimidin-7(8H)-one, reference compound] |  |
| < 5.00 | CN1CCN(c2ccc(Nc3ncc4cc(S(=O)(=O)c5ccc(Cl)cc5)c(=O)n(C5CCCC5)c4n3)cc2)CC1 [Comp. Ex. 2, 6-((4-chlorophenyl)sulfonyl)-8-cyclopentyl-2-((4-(4-methylpiperazin-1-yl)phenyl)amino)pyrido[2,3-d]pyrimidin-7(8H)-one, reference compound] |  |
| < 6.00 | COc1ccc(Nc2ncc3ccc(=O)n(C4CCCC4)c3n2)cc1OC [Comp. Ex. 4, 8-cyclopentyl-2-((3,4-dimethoxyphenyl)amino)pyrido[2,3-d]pyrimidin-7(8H)-one, reference compound] |  |
| < 5.30 | COc1ccc(Nc2ncc3ccc(=O)n(C4CCCC4)c3n2)c(OC)c1 [Comp. Ex. 5, 8-cyclopentyl-2-((2,4-dimethoxyphenyl)amino)pyrido[2,3-d]pyrimidin-7(8H)-one, reference compound] |  |
| 7.12 | N#Cc1cc2cnc(Nc3ccc(N4CCOCC4)cc3)nc2n(C2CCCC2)c1=O [Compound 13, 8-cyclopentyl-2-((4-morpholinophenyl)amino)-7-oxo-7,8-dihydropyrido[2,3-d]pyrimidine-6-carbonitrile] |  |
| 7.12 | COc1cc(Nc2ncc3cc(C#N)c(=O)n(C4CCCC4)c3n2)cc(OC)c1 [Compound 14, 8-cyclopentyl-2-((3,5-dimethoxyphenyl)amino)-7-oxo-7,8-dihydropyrido[2,3-d]pyrimidine-6-carbonitrile] |  |
| 7.30 | COc1cc(Nc2ncc3cc(C#N)c(=O)n(C4CCCC4)c3n2)cc(OC)c1OC [Compound 15, 8-cyclopentyl-7-oxo-2-((3,4,5-trimethoxyphenyl)amino)-7,8-dihydropyrido[2,3-d]pyrimidine-6-carbonitrile] |  |
| 7.36 | CN1CCN(c2ccc(Nc3ncc4cc(C#N)c(=O)n(C5CCCCC5)c4n3)cc2)CC1 [Compound 16, 8-cyclohexyl-2-((4-(4-methylpiperazin-1-yl)phenyl)amino)-7-oxo-7,8-dihydropyrido[2,3-d]pyrimidine-6-carbonitrile] |  |
|  | CC(=O)c1c(C)c2cnc(Nc3ccc(N4CCNCC4)cn3)nc2n(C2CCCC2)c1=O [PD0332991, reference compound] | pIC50 (PKCmu): 6.90; pIC50 (ARK5): 5.47; pIC50 (c-Kit): < 5.00; pIC50 (FGR): < 5.00; pIC50 (TTK): 6.16; pIC50 (FLT4NEGFR3): < 5.00 |
